In patent US10039729B2, “Use of kukoamine A and kukoamine B” (Tianjin Chase Sun Pharmaceutical Co., Ltd., priority 2010, dated 2018):

Columns and labels:
[1] = tested on: murine peritoneal macrophages; assay: mRNA expression of TNF-α and IL-6 in murine peritoneal macrophages stimulated by LPS and CpG DNA; assay type: cell-based; conditions: 100, 200 μM, dose-dependent
Text: 16.1 Methods: Influence of KB on the mRNA expression of TNF-α and IL-6 in murine peritoneal macrophages stimulated by LPS and CpG DNA was observed. Methods were the same as embodiment 15.

RAW264.7 cells [2] = assay: Semi-quantitative RT-PCR of TLR4, TLR9, MyD88 and western blot of NF-κB p65 in RAW264.7 cells; assay type: cell-based, murine; conditions: KB 200 μM
Experimental: Reaction mixtures were added into 0.2 ml PCR tubes. The reaction mixture included 1 μl cDNA, 10.0 μl 2×Taq Master Mix, 1 μl upstream primer (10 μM), 1 μl downstream primer (10 μM) and 7 μl RNase-free H2O. PCR programs are as follows:
Finally, the PCR products were detected by agarose gel electrophoresis; 1% agarose gel was prepared and cast; 5 μl PCR products of each tube were loaded, electrophoresed at 100 v for 30 min; then gel was took out and scanned; the images were analysed by Quantity One software.
(2) Inhibition of KB on activation of NF-κB p65 in RAW264.7 cells induced by LPS and CpG DNA: Methods are as above; nucleoprotein extraction continued to be incubated for 1 h after sample loading; then, NF-κB p65 in it was assayed using westernblot; the procedure of nucleoprotein extraction and westernblot were consistent with embodiment 23.

NF-κB = NF-κB activation in RAW264.7 cells (ELISA of nuclear p50/p65, luciferase reporter gene assay); assay type: cell-based, murine; conditions: KB 200 μM
Experimental: […]
Detection of NF-κB activation using ELISA: Each well was added with 30 μl binding solution (3.2 μl DTT and 16.2 μl Herring sperm DNA were diluted in 1.6 ml binding solutions); each sample well was added with 20 μl sample ([…]); positive control wells was added with 20 μl p50; blank control wells were added with 20 μl dissolution buffer (0.9 μl 1M DTT and 1.8 μl protease inhibitors was diluted in 177.3 μl dissolution buffer AM2); the microtiter plate was shaken for 30 seconds for completely mixing, incubated at room temperature for 1 h, and then washed thrice with 200 μl 1×wash solution (450 μl 10×wash solution were diluted in 4.05 ml ddH2O) and gentle shaking for 5 min each time; each well was added with 100 μl NF-κB antibody (1:1000), incubated for 1 h, then washed thrice with 200 μl 1×wash solution and gentle shaking for 5 min each time; each well was added with 100 μl HRP antibody (1:1000), incubated for 1 h, then washed four times with 200 μl 1×wash solution and gentle shaken for 5 min each time; each well was added with 100 μl detection reagent, incubated for 5 min away from light, and then added with 100 μl stop solution; the absorbance value at 450 nm of each well was detected. […]

RAW264.7 cells [3] = assay: Binding and cellular internalization of LPS and CpG DNA to RAW264.7 cells (confocal microscopy); assay type: cell-based, murine; conditions: KB 50, 100 and 200 μM, dose-dependent
Experimental: 21.1 Methods: RAW264.7 cells were cultured in 20 mm cell culture dishes for confocal microscopy applications, and diluted to 5×10^5/ml in DMEM supplemented with 10% (v/v) NCS; 1 ml of the above suspension was transferred into each cell culture dishes and cultured at 37° C. in a 5% CO2 humidified incubator for 4 h; for the purpose of experiment three groups were established, medium group, stimulation group and KB treatment group; the concentration and loading patterns of each group were consistent with Embodiment 12; the cells were then fixed with 4% paraform for 10 min after 30 min of culture, and washed thrice with PBS; nucleus were stained with DAPI (100 ng·mL^−1) for 2 min, washed with PBS thrice, mounted with a solution of 50% glycerol and 50% PBS, and stored in dark place until intensity and distribution of fluorescence of LPS and CpG DNA on RAW264.7 cells surface were observed under a confocal microscopy.

[4] = Major organ pathological morphous of mice after KB injection; assay type: in vivo, Kunming mice; conditions: KB 60 mg/kg single dose; 24, 48 and 72 h
Experimental: 30.1 Methods: A total of 16 Kunming mice were randomly divided into four groups; each group has 4 mice, half male and half female; for the purpose of experiment a medium group and a KB (60 mg/kg) treatment group were established; mice in medium group were immediately killed by cervical dislocation, and KB treatment group were killed separately killed at 24, 48 and 72 h after injection; the cavitas thoracis and abdominal cavity of mice were cut open; organs such as heart, liver, lung, kidney and intestine were moved out, rinsed with sterile saline, plunged into 10% formaldehyde solution for fixing, dehydrated, embedded in paraffin, HE dyed and mounted; organ histopathological changes were observed under a light microscope.

NCCCN(CCCCNCCCNC(=O)CCc1ccc(O)c(O)c1)C(=O)CCc1ccc(O)c(O)c1 [KB, Kukoamine B]
mRNA expressions of TNF-α and IL-6 up-regulated by CpG DNA [1]: significantly inhibit the mRNA expressions | mRNA expressions of TNF-α and IL-6 up-regulated by LPS [1]: significantly inhibit the mRNA expressions | up-regulated expression of TLR4, TLR9 and MyD88 stimulated by LPS and CpG DNA (RAW264.7 cells [2]; 4 h, semi-quantitative RT-PCR): inhibited up-regulated expression | up-regulation of NF-κB p65 in RAW264.7 cell nucleus induced by LPS and CpG DNA (RAW264.7 cells [2]; LPS 100 ng/ml, CpG DNA 10 μg/ml, western blot): inhibit the up-regulation of NF-κB p65 | increase of p50 and p65 levels in nuclear proteins induced by LPS and CpG DNA (NF-κB; 2 h, ELISA): significantly inhibited | NF-κB activation induced by LPS and CpG DNA (luciferase reporter gene assay) (NF-κB; 6 h): inhibit NF-κB activation | green fluorescence intensity of 5-FAM (CpG DNA) on the surface of and inside RAW264.7 cells (RAW264.7 cells [3]; 5-FAM-CpG DNA 10 μg/ml): significantly weakened | green fluorescence intensity of FITC (LPS) on the surface of and inside RAW264.7 cells (RAW264.7 cells [3]; FITC-LPS 200 ng/ml): significantly weakened | cardiac muscle histopathology [4]: no cell necrosis and inflammatory cell infiltration | changes in major organs of mice [4]: no significant changes in major organs | kidney histopathology [4]: normal morphology and no obvious changes | liver histopathology [4]: no pathological changes such as cellular swelling and necrosis | lung histopathology [4]: no congestion and inflammatory cell infiltration
